According to patent publication US20230348401A1, “Inhibitors of Glucose-6-phosphate Dehydrogenase and Uses Thereof” (The Trustees of Princeton University, priority 2020, published 2023):

Experiments:
G6PD [1] = biological target: T1, G6PD (Homo sapiens, UniProt P11413); assay: Cellular thermal shift assay (CETSA) in HepG2 lysates; assay type: binding; parameters: endogenous in cells; settings: up to 56° C.
Protocol: Lysates from HepG2 cells at 75% confluence were isolated with 0.5% Triton in TBS (20 mM, Tris pH 7.4, 150 mM NaCl) for 30 min on ice, pre-cleared by centrifugation and used for thermal shift assay as described 49. Briefly, inhibitor or DMSO control was added to lysates at indicated concentration and incubated for 30 min on ice followed by 3 min heating at 47° C., 50° C., 53° C., and 56° C. in a thermal cycler. After heating, tubes were cooled at room temperature for 3 min and insoluble fraction removed by centrifugation at 17,000 g for 20 min. The soluble fraction was separated by SDS-PAGE, transferred to PVDF membrane, and immunoblotted using indicated antibodies at a dilution of 1:2000. Blots were developed by chemiluminescence and imaged using LI-COR C-DiGit Western Blot Scanner. Two independent experiments were performed. Signal intensity of proteins from immunoblots was quantified using Image Studio version 5.2 for C-DiGit Scanner, and bands were normalized to signal intensity of the 47° C. treated samples. Relative signal intensities were plotted as bar graph relative to the DMSO treated control.

HCT116 cells = assay: NADP/NADPH ratio and dUMP levels in HCT116 cells; assay type: cell-based, human; settings: dose-response
Protocol: For analysis of intracellular metabolites by LC-MS, adherent cell lines were plated and grown to 80% confluency in 6-well plates. At the start of an experiment, the appropriate media was added to cells, which included isotope tracers and/or chemical inhibitors as described. Cells were incubated at 37° C. at 5% CO2 for 2 hours (unless otherwise noted). For all experiments involving small molecule agents, DMSO concentrations were <0.2%. After 2 hours, media was removed by aspiration and metabolome extraction was performed (without any wash steps) by the addition of 800 µL of ice cold solvent (40:40:20 acetonitrile:methanol:water + 0.5% formic acid). After a 1-minute incubation on ice, the extract was neutralized by the addition of NH4HCO3 (15% w/v). The samples were incubated at -20° C. for approximately 30 minutes, at which point the wells were scraped and the extract transferred to Eppendorf tubes and centrifuged (15 minutes, 16000 rpm, 4° C.). […]
Metabolites were analyzed using a quadrupole-orbitrap mass spectrometer (Q Exactive Plus, Thermo Fisher Scientific, Waltham, MA), coupled to hydrophilic interaction chromatography (HILIC) with LC separation on a XBridge BEH Amide column (Waters), or a stand-alone orbitrap (Thermo-Fisher Exactive) coupled to reversed-phase ion-pairing chromatography with LC separation on a HSS-T3 column (Waters). […]

naïve CD8+ T cells = assay: T cell activation, proliferation and viability (flow cytometry); assay type: cell-based, mouse
Protocol: The functional consequences of oxPPP inhibition were next explored using G6PDi-1 in T cells. To test the effect of G6PDi-1 on activation and proliferation, naïve CD8+ T cells were isolated from spleen and activated in vitro with plate-bound αCD3/αCD28 and IL-2. Activation was evaluated by flow cytometry analysis of surface markers CD69 (levels rapidly rise upon activation) and CD25 (usually peaking at 24-48 hours post-activation), and cell size, which increases over the first 24 hours post-activation. To quantify proliferation, naïve cells were stained with […] (CTV) and dye dilution was measured by flow cytometry at day 4 post-activation.
To analyze cell surface markers expression, cells were collected, washed with PBS and stained with the viability dye Live/Dead Aqua. Cells were then washed with staining buffer and stained for surface markers: CD4 (APC-Cy7, clone RM4-5,), CD8a (PerCP-Cy5.5, clone 53-6.7), CD25 (APC, clone PC61), CD44 (PE-Cy7, clone IM7), CD62L (PE, clone MEL-14) CD69 (FITC, clone H1.2F3), for T cells; CD11b (APC, clone M1/70 and F4/80 (FITC, clone BM8) for macrophages.
To analyze proliferation, naïve CD8 T cells were stained with CTV dye and either maintained in a naïve state with IL7 or stimulated with αCD3/αCD28 + recombinant IL-2 in the presence of increasing concentrations of G6PDi-1. Cells were refed at days 2 and 3 post-stimulation, and proliferation was measured at day 4 post-activation. Cells were collected, washed with staining buffer and stained with the viability dye propidium iodide.

G6PD [2] = biological target: T1, G6PD; assay: 6-pg levels in HepG2 cells (cellular target engagement); assay type: cell-based; parameters: endogenous in cells; settings: HepG2 cells; read-out: IC50, decrease in 6-pg levels
Text: Direct Monitoring of 6-pg in cells. The metabolite 6-phosphogluconate (6-pg) is a downstream product of the G6PD reaction, and is believed to be made predominantly by the oxidative pentose phosphate pathway in mammalian cells. Though the direct product of G6PD is the lactone form of 6-pg (6-phosphogluconolactone), this product is believed to readily hydrolyze to 6-pg under cellular conditions, and is therefore difficult to detect. Thus, to directly monitor the G6PD reaction, methods for measuring 6-pg levels in intact cells were developed.
To explore this possibility further, more specific assays for evaluating G6PD cellular target engagement were developed. […] These included the hepatocellular carcinoma line, HepG2, which was selected as the primary cell for direct 6-pg monitoring. Consistent with the oxPPP being the primary source of 6-pg in these cells, G6PD knockout led to nearly complete 6-pg loss (FIGS. 1B and 1C).
For analysis of intracellular metabolites by LC-MS, adherent cell lines were plated and grown to 80% confluency in 6-well plates. At the start of an experiment, the appropriate media was added to cells, which included isotope tracers and/or chemical inhibitors as described. Cells were incubated at 37° C. at 5% CO2 for 2 hours (unless otherwise noted). For all experiments involving small molecule agents, DMSO concentrations were <0.2%. After 2 hours, media was removed by aspiration and metabolome extraction was performed (without any wash steps) by the addition of 800 µL of ice cold solvent (40:40:20 acetonitrile:methanol:water + 0.5% formic acid). After a 1-minute incubation on ice, the extract was neutralized by the addition of NH4HCO3 (15% w/v). The samples were incubated at -20° C. for approximately 30 minutes, at which point the wells were scraped and the extract transferred to Eppendorf tubes and centrifuged (15 minutes, 16000 rpm, 4° C.). The resulting supernatant was frozen on dry ice and kept at -80° C. until LC-MS analysis.
Metabolites were analyzed using a quadrupole-orbitrap mass spectrometer (Q Exactive Plus, Thermo Fisher Scientific, Waltham, MA), coupled to hydrophilic interaction chromatography (HILIC) with LC separation on a XBridge BEH Amide column (Waters), or a stand-alone orbitrap (Thermo-Fisher Exactive) coupled to reversed-phase ion-pairing chromatography with LC separation on a HSS-T3 column (Waters). Both mass spectrometers were operating in negative ion mode and were coupled to their respective liquid chromatography methods via electrospray-ionization. Detailed analytical conditions have been previously described.

T1 sequence (P11413 whole entry): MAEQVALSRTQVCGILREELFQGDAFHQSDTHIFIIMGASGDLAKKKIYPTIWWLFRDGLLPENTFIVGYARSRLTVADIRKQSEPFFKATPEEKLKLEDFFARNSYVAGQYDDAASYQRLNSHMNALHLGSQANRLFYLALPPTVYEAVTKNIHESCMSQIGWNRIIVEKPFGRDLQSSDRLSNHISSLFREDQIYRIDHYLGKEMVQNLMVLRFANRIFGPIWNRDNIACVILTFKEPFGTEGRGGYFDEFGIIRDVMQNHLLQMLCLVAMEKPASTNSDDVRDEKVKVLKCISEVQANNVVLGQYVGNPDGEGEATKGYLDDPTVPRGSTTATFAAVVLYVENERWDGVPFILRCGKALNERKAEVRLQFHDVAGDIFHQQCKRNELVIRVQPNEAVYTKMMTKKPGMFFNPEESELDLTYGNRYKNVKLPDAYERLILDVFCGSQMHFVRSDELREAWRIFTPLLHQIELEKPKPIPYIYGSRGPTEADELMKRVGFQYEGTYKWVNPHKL

For `N#Cc1cc(Nc2ncc3c(n2)CCCCC3=O)cs1` [Compound 2, 4-([5-oxo-6H,7H,8H,9H-cyclohepta[d]pyrimidin-2-yl]amino)thiophene-2-carbonitrile], the “thermal stabilization of G6PD” value (G6PD [1]) was “significant thermal stabilization of G6PD”, the NADP/NADPH (HCT116 cells) was “dose-dependent increases” and the dUMP (HCT116 cells) was “dose-dependent increases”. The “proliferation of CD4+ T cells” value (naïve CD8+ T cells; CD4+ T cells) was “minimal effect”, the viability (naïve CD8+ T cells; CD8+ T cells) was “minimal effect” and the activation-dependent proliferation (naïve CD8+ T cells; CD8+ T cells, day 4 post-activation) was “minimal effect”. For the same compound, the “upregulation of activation markers and activation-dependent increase in cell size” value (naïve CD8+ T cells; CD8+ T cells, αCD3/αCD28 and IL-2) was “did not alter” and the IC50 (G6PD [2]) was ~13 µM.
